In paper PMC9167697 (Clinical cancer research : an official journal of the …, 2022):

Key:
A2AR = conditions: cells transfected with A2AR; cited from earlier work
[1] = system: advanced/metastatic NSCLC; experiment: Tumor response; type: in vivo, human
human A2AR = conditions: cited from earlier work
[2] = system: patients with advanced NSCLC; experiment: Safety, tolerability, DLT and MTD in the phase I/Ib dose-escalation study; type: in vivo
[3] = Plasma pharmacokinetics of taminadenant in the phase I/Ib study; type: in vivo, human
mouse xenograft models = conditions: cited from earlier work
[4] = investigator-assessed, RECIST v1.1, n=25

For Nc1nc(-n2cccn2)nc(-n2cccn2)c1Br [Taminadenant], the “effect on cyclic adenosine monophosphate accumulation” value (A2AR) is listed as “inhibition of cyclic adenosine monophosphate accumulation”, the Disease control rate ([1]; CR + PR + SD, based on the number of evaluable patients) is listed as 42.9 (21.8–66.0) % (95% CI) and the Overall response rate ([1]; CR + PR, based on the number of evaluable patients) is listed as 9.5 (1.2–30.4) % (95% CI). For the same compound, the “median estimate of OS” value ([1]; Kaplan-Meier) was 9.7 months, the “median estimate of PFS” value ([1]; Kaplan-Meier, RECIST v1.1) was 3.9 months and the “Best overall response: Complete response” value [1, 4] was 1 (4.0) n (%). The “Best overall response: Non-evaluable” value [1, 4] was 4 (16.0) n (%), the “Best overall response: Partial response” value [1, 4] was 1 (4.0) n (%) and the “Best overall response: Progressive disease” value [1, 4] was 12 (48.0) n (%). For the same compound, the “Best overall response: Stable disease” value [1, 4] was 7 (28.0) n (%), the “patients who achieved disease control” value ([1]; of all 25 patients per group) was 36.0% and the “duration of complete response” value ([1]; one patient each, single agent 480 mg, combination 160 mg taminadenant) was 1.1 months. For the same compound, the “duration of disease control in a patient with stable disease” value ([1]; one patient, 160 mg, on treatment at data cut-off) was 36.7 months, the “in vitro binding affinity to human A2AR, as concentration” value (human A2AR) was 3.67 ng/mL and the Ki (human A2AR; read-out: in vitro binding affinity to human A2AR) was 12 nM. The “dose delays or interruptions” value ([2]; human, in vivo) was 13 patients, the “patients who discontinued due to adverse events” value ([2]; human, in vivo) was 12.0% and the “patients with Grade 3/4 TRAEs” value ([2]; human, in vivo) was 16.0%. The “patients with treatment-related adverse events (TRAEs) of any grade” value ([2]; human, in vivo) was 84.0%, the “patients with treatment-related fatigue” value ([2]; human, in vivo) was 20.0% and the “patients with treatment-related gastroesophageal reflux disease” value ([2]; human, in vivo) was 24.0%. The “patients with treatment-related nausea” value ([2]; human, in vivo) was 44.0%, the “patients with treatment-related vomiting” value ([2]; human, in vivo) was 20.0% and the “dose delays due to TRAEs” value ([2]; in vivo) was “five”. The “patients reporting at least one adverse event, regardless of causality” value ([2]; in vivo) was “All patients”, the tolerability ([2]; in vivo) was “well tolerated” and the on-study deaths ([2]; n=25 per group, none related to study treatment) was 8.0%. For the same compound, the “maximum tolerated dose (MTD) of taminadenant” value ([2]; oral, combination with 400 mg spartalizumab Q4W) was 480 mg BID, the Vd/F ([3]; human, in vivo) was 114 to 1520 L and the “apparent clearance (CL/F) upon repeated daily dosing compared with a single dose” value ([3]; human, in vivo) was “notably decreased”. For the same compound, the “time to maximum plasma drug concentration (Cmax)” value ([3]; human, in vivo, po) was 0.5 to 3 h, the “differences in taminadenant PK between the single-agent and combination group” value ([3]; large inter-individual variability in Cmax and AUC) was “no notable differences” and the “accumulation relative to a single dose” value ([3]; repeated daily doses, after 1 week) was “approximately 3 fold”. For the same compound, the “increase of systemic exposure (Cmax, AUC) with escalating doses” value ([3]; single and multiple doses from 80 mg to 640 mg) was “more-than-proportional” and the “effect on tumor growth” value (mouse xenograft models) was “significantly reduced tumor growth”.
